Where “and” joins values, the source holds several entries; their conditions need not be identical. Identical values can stand only once.
Biological target: T1, particulate guanylyl cyclase receptor A (pGC-A) (Homo sapiens, UniProt P16066)
T1 construct: expressed in transfected cells; host or cells: HEK293
T1 sequence (P16066 33-1061): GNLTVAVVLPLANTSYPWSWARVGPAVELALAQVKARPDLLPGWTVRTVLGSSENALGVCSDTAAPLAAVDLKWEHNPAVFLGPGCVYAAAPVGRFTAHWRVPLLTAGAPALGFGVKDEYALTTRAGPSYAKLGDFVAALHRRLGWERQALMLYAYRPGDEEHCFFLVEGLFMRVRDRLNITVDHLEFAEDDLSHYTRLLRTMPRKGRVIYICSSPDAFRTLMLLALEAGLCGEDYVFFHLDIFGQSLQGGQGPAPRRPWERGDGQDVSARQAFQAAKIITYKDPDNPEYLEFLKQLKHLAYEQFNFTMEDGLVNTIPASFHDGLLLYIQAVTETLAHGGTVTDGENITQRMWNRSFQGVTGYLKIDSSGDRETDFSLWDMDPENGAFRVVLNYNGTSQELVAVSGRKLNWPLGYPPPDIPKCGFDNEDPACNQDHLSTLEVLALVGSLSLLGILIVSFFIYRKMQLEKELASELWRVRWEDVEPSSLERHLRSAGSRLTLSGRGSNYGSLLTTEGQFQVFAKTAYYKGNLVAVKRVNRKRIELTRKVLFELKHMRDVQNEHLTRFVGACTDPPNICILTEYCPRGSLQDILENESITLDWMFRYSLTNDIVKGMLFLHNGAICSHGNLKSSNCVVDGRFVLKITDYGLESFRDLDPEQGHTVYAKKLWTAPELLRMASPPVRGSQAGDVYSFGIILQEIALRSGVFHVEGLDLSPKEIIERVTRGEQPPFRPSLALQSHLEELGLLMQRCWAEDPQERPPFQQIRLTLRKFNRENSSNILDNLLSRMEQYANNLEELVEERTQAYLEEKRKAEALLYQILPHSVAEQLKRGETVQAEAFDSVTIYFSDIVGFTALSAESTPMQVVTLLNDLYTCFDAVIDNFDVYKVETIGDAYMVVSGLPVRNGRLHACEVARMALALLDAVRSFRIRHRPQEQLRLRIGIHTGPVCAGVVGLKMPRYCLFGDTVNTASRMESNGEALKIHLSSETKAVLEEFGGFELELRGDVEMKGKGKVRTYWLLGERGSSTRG
T1 sequence (P01160 124-151 partner limits assumed): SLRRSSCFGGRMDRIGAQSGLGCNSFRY
Assay: cGMP production by HTRF in HEK293 cells overexpressing pGC-A, with ANP
Type: cell-based
Conditions: for Emax: HEK293, HEK293 cells overexpressing pGC-A, read-out: Max efficacy; for EC50: test compound plus EC20 concentration of ANP, cGMP by HTRF
In short: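 Suspension cells stimulated 30 min at room temperature with test compound (10 μM stock in DMSO) plus ANP near EC20 in HBSS/5 mM HEPES/0.05% BSA. cGMP quantified by competitive HTRF immunoassay (Eu3+ cryptate anti-cGMP, d2-cGMP), normalized to cGMP from EC80 ANP; EC50 derived with or without ANP.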

[1] = cGMP normalized to maximal amount produced by an EC80 concentration of ANP
[2] = HEK293 cells overexpressing pGC-A

| Structure (SMILES) | Emax [1] | EC50 [2] | Max efficacy (HEK293 cells overexpressing pGC-A, cGMP normalized to maximal amount produced by an EC80 concentration of ANP) |
| --- | --- | --- | --- |
| CN(C)CCN1CC(O)CC(C(=O)Nc2nc3c(F)cc(F)cc3s2)C1 (stereo not shown) [compound 262] | 86% | 0.4 µM | – |
| O=C(Nc1nc2c(F)cc(F)cc2s1)C1CNCC(O)C1 (stereo not shown) [compound 263] | 45% | 1.3 µM | – |
| COC1CNCC(C(=O)Nc2nc3c(F)cc(F)cc3s2)C1 (stereo not shown) [compound 265] | 75% | 1.7 µM | – |
| O=C(O)C1CNCC(C(=O)Nc2nc3c(F)cc(F)cc3s2)C1 (stereo not shown) [compound 271] | – | > 5 µM | – |
| CCN(C)C(=O)N1CCCC(C(=O)Nc2nc3c(F)cc(F)cc3s2)C1 (stereo not shown) [compound 274] | 62% | 3.6 µM and 1.2 µM | 72% |
| O=C(Nc1nc2c(F)cc(F)cc2s1)C1CCCN(C(=O)N2CCCC2)C1 (stereo not shown) [compound 275] | – | > 5 µM | – |
| CCN(CC)C(=O)N1CCCC(C(=O)Nc2nc3c(F)cc(F)cc3s2)C1 (stereo not shown) [compound 276] | 49% | 1.6 µM and > 5 µM | – |
| CCNC(=O)N1CCCC(C(=O)Nc2nc3c(F)cc(F)cc3s2)C1 (stereo not shown) [compound 277] | – | > 5 µM | – |
| CC(C)NC(=O)N1CCCC(C(=O)Nc2nc3c(F)cc(F)cc3s2)C1 (stereo not shown) [compound 278] | 70% | 2.6 µM | – |
| O=C(Nc1nc2c(F)cc(F)cc2s1)C1CCCN(C(=O)NCc2ccccc2)C1 (stereo not shown) [compound 279] | – | > 5 µM | – |
| O=C(Nc1nc2c(F)cc(F)cc2s1)C1CCCN(C(=O)Nc2ccccc2)C1 (stereo not shown) [compound 280] | – | > 5 µM | – |
| CNC(=O)N1CCCC(C(=O)Nc2nc3c(F)cc(F)cc3s2)C1 (stereo not shown) [compound 281] | 53% | 1.3 µM | – |
| CN(C)C(=O)N1CCCC(C(=O)Nc2nc3c(Cl)cc(F)cc3s2)C1 (stereo not shown) [compound 282] | 61% | 0.18 µM | – |

— patent publication US20250092030A1, “ENHANCERS OF PARTICULATE GUANYLYL CYCLASE RECEPTOR A” (Mayo Foundation for Medical Education and Research, priority 2023, published 2025)
